Experimental data: patent US7605163B2, “Benzoyl-piperazine derivatives” (Hoffmann-La Roche Inc., priority 2003, dated 2009)

Molecular target: T1, mGlyT-1b (Mus musculus, UniProt P28571)
T1 construct: host or cells: Flp-in-CHO cells
T1 sequence (P28571 1-651 isoform P28571-2): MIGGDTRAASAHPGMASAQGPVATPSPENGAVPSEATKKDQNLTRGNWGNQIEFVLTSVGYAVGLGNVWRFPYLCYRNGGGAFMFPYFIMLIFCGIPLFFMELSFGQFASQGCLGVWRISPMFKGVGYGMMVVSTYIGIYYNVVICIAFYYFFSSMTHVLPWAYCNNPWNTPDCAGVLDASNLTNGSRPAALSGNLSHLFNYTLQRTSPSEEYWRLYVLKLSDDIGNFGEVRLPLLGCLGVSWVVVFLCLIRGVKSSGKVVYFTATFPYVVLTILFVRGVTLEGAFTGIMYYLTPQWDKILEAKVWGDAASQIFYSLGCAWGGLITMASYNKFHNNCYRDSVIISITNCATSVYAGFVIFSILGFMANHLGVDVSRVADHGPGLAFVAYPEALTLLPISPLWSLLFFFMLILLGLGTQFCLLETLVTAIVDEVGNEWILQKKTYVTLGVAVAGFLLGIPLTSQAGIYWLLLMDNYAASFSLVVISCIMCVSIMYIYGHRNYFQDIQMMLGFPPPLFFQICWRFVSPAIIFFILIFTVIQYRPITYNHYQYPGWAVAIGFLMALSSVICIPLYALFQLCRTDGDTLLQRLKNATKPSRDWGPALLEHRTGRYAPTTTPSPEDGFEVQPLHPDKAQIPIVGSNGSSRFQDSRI
Assay: Glycine Uptake Inhibition Assay (mGlyT-1b)
Assay type: cell-based
Conditions: [3H]-glycine uptake inhibition at GlyT-1, Flp-in-CHO cells transfected with mGlyT-1b cDNA
Experimental: DMEM complete medium: Nutrient mixture F-12 (Gibco Life-technologies), fetal bovine serum (FBS) 5%, (Gibco life technologies), Penicillin/Streptomycin 1% (Gibco life technologies), Hygromycin 0.6 mg/ml (Gibco life technologies), Glutamine 1 mM Gibco life technologies)
Uptake buffer (UB): 150 mM NaCl, 10 mM Hepes-Tris, pH 7.4, 1 mM CaCl2, 2.5 mM KCl, 2.5 mM MgSO4, 10 mM (+) D-glucose. Flp-in™-CHO (Invitrogen Cat n^o R758-07) cells stably transfected with mGlyT1b cDNA.
Glycine Uptake Inhibition Assay (mGlyT-1b)
On day 1 mammalian cells, (Flp-in™-CHO), transfected with mGlyT-1b cDNA, were plated at the density of 40,000 cells/well in complete F-12 medium, without hygromycin in 96-well culture plates. On day 2, the medium was aspirated, and the cells were washed twice with uptake buffer (UB). The cells were then incubated for 20 min at 22° C. with either (i) no potential competitor, (ii) 10 mM non-radioactive glycine, (iii) a concentration of a potential inhibitor. A range of concentrations of the potential inhibitor was used to generate data for calculating the concentration of inhibitor resulting in 50% of the effect (e.g. IC50, the concentration of the competitor inhibiting glycine uptake of 50%).
A solution was then immediately added containing [^3H]-glycine 60 nM (11-16 Ci/mmol) and 25 μM non-radioactive glycine. The plates were incubated with gentle shaking, and the reaction was stopped by aspiration of the mixture and washing (three times) with ice-cold UB. The cells were lysed with scintillation liquid, shaken 3 hours and the radioactivity in the cells counted using a scintillation counter.

Compound | IC50
CCC(C)Oc1ccc([N+](=O)[O-])cc1C(=O)N1CCN(c2ccc(C(F)(F)F)cc2)CC1 (racemic) [Example 78, Rac-(2-sec-Butoxy-5-nitro-phenyl)-[4-(4-trifluoromethyl-phenyl)-piperazin-1-yl]-methanone] | 12 nM
CC(Oc1ccc(S(C)(=O)=O)cc1C(=O)N1CCN(c2ccc(C(F)(F)F)cc2)CC1)C1CC1 (racemic) [Example 104, Rac-[2-(1-Cyclopropyl-ethoxy)-5-methanesulfonyl-phenyl]-[4-(4-trifluoromethyl-phenyl)-piperazin-1-yl]-methanone] | 46 nM
CCC(C)Oc1ccc(S(C)(=O)=O)cc1C(=O)N1CCN(c2ccc(C(C)=O)cc2F)CC1 (racemic) [compound 319] | 31 nM
CCC(C)Oc1ccc(S(C)(=O)=O)cc1C(=O)N1CCN(c2ccc(C#N)c(F)c2)CC1 (racemic) [compound 322] | 28 nM
CC(Oc1ccc(S(C)(=O)=O)cc1C(=O)N1CCN(c2ncc(C(F)(F)F)cc2Cl)CC1)C(F)(F)F (racemic) [compound 407] | 27 nM
CC(Oc1ccc(S(C)(=O)=O)cc1C(=O)N1CCN(c2ccc(C(F)(F)F)cn2)CC1)C(F)(F)F (racemic) [compound 408] | 37 nM
CC(Oc1ccc(S(C)(=O)=O)cc1C(=O)N1CCN(c2cccc(C(F)(F)F)n2)CC1)C(F)(F)F (racemic) [compound 459] | 40 nM
CNS(=O)(=O)c1ccc(OC(C)C(F)(F)F)c(C(=O)N2CCN(c3ccc(C(F)(F)F)cc3)CC2)c1 (racemic) [compound 554] | 19 nM
CCC(C)Oc1ccc(S(C)(=O)=O)cc1C(=O)N1CCN(c2ccc(S(=O)(=O)CC)cc2F)CC1 (racemic) [compound 568] | 44 nM
CC(Oc1ccc(S(C)(=O)=O)cc1C(=O)N1CCN(c2ccc(C(F)(F)F)cn2)CC1)C(F)(F)F (single isomer, unassigned) [compound 464] | 20 nM
CC(Oc1ccc(S(C)(=O)=O)cc1C(=O)N1CCN(c2ccc(C(F)(F)F)cn2)CC1)C(F)(F)F (single isomer, unassigned) [compound 465] | 40 nM
CC(Oc1ccc(S(C)(=O)=O)cc1C(=O)N1CCN(c2ccc(C(F)(F)F)cc2)CC1)C(F)(F)F (single isomer, unassigned) [compound 468] | 20 nM
CC(Oc1ccc(S(C)(=O)=O)cc1C(=O)N1CCN(c2ccc(C(F)(F)F)cc2)CC1)C(F)(F)F (single isomer, unassigned) [compound 469] | 20 nM
CC(=O)c1ccc(N2CCN(C(=O)c3cc(S(C)(=O)=O)ccc3OC(C)C)CC2)c(F)c1 [Example 1, 1-{3-fluoro-4-[4-(2-isopropoxy-5-methanesulfonyl-benzoyl)-piperazin-1-yl]-phenyl}-ethanone] | 39 nM
CC(=O)c1ccc(N2CCN(C(=O)c3cc(S(C)(=O)=O)ccc3OCC3CC3)CC2)c(F)c1 [Example 15, 1-{4-[4-(2-cyclopropylmethoxy-5-methanesulfonyl-benzoyl)-piperazin-1-yl]-3-fluoro-phenyl}-ethanone] | 15 nM
CS(=O)(=O)c1ccc(OCC(F)(F)F)c(C(=O)N2CCN(c3ccc(C(F)(F)F)cc3F)CC2)c1 [Example 28, [4-(2-fluoro-4-trifluoromethyl-phenyl)-piperazin-1-yl]-[5-methanesulfonyl-2-(2,2,2-trifluoro-ethoxy)-phenyl]-methanone] | 12 nM
COCCOc1ccc([N+](=O)[O-])cc1C(=O)N1CCN(c2ccc(C(C)=O)cc2F)CC1 [Example 54, 1-(3-Fluoro-4-{4-[2-(2-methoxy-ethoxy)-5-nitro-benzoyl]-piperazin-1-yl}-phenyl)-ethanone] | 50 nM
CC(C)Oc1ccc([N+](=O)[O-])cc1C(=O)N1CCN(c2ccc(C(F)(F)F)cc2)CC1 [Example 62, (2-Isopropoxy-5-nitro-phenyl)-[4-(4-trifluoromethyl-phenyl)-piperazin-1-yl]-methanone] | 17 nM
O=C(c1cc([N+](=O)[O-])ccc1OCC1CC1)N1CCN(c2ccc(C(F)(F)F)cc2)CC1 [Example 63, (2-Cyclopropylmethoxy-5-nitro-phenyl)-[4-(4-trifluoromethyl-phenyl)-piperazin-1-yl]-methanone] | 28 nM
O=C(c1cc([N+](=O)[O-])ccc1OCC1CCC1)N1CCN(c2ccc(C(F)(F)F)cc2)CC1 [Example 64, (2-Cyclobutylmethoxy-5-nitro-phenyl)-[4-(4-trifluoromethyl-phenyl)-piperazin-1-yl]-methanone] | 25 nM

Continued, values first:

IC50 | Compound
23 nM | CC(Oc1ccc(S(C)(=O)=O)cc1C(=O)N1CCN(c2ccc(C#N)c(F)c2F)CC1)C(F)(F)F (racemic) [compound 207]
32 nM | CC(Oc1ccc(S(C)(=O)=O)cc1C(=O)N1CCN(c2ccc(Cl)cc2C#N)CC1)C(F)(F)F (racemic) [compound 256]
86 nM | CC(Oc1ccc(S(C)(=O)=O)cc1C(=O)N1CCN(c2ccc(Cl)c(Cl)c2)CC1)C(F)(F)F (racemic) [compound 258]
43 nM | CC(Oc1ccc(S(C)(=O)=O)cc1C(=O)N1CCN(c2c(F)cc(C#N)cc2F)CC1)C(F)(F)F (racemic) [compound 260]
43 nM | CC(Oc1ccc(S(C)(=O)=O)cc1C(=O)N1CCN(c2cc(F)c(C#N)cc2F)CC1)C(F)(F)F (racemic) [compound 261]
42 nM | CC(Oc1ccc(S(C)(=O)=O)cc1C(=O)N1CCN(c2cc(F)c(C#N)c(F)c2)CC1)C(F)(F)F (racemic) [compound 262]
21 nM | CC(Oc1ccc(S(C)(=O)=O)cc1C(=O)N1CCN(c2ccc(C#N)cc2)CC1)C(F)(F)F (racemic) [compound 298]
44 nM | CC(Oc1ccc(S(C)(=O)=O)cc1C(=O)N1CCN(c2ccc(C#N)cc2F)CC1)C(F)(F)F (racemic) [compound 299]
16 nM | CC(Oc1ccc(S(C)(=O)=O)cc1C(=O)N1CCN(c2ccc(C#N)c(F)c2)CC1)C(F)(F)F (racemic) [compound 300]
13 nM | CC(Oc1ccc(S(C)(=O)=O)cc1C(=O)N1CCN(c2ccc(C(F)(F)F)cc2F)CC1)C(F)(F)F (racemic) [compound 302]
6 nM | CC(Oc1ccc(S(C)(=O)=O)cc1C(=O)N1CCN(c2ccc(C(F)(F)F)c(F)c2)CC1)C(F)(F)F (racemic) [compound 303]
18 nM | CCC(C)Oc1ccc(S(C)(=O)=O)cc1C(=O)N1CCN(c2ccc(C#N)cc2F)CC1 (racemic) [compound 321]
39 nM | CCC(C)Oc1ccc(S(C)(=O)=O)cc1C(=O)N1CCN(c2ccc(C(F)(F)F)cc2F)CC1 (racemic) [compound 324]
33 nM | CCC(C)Oc1ccc(S(C)(=O)=O)cc1C(=O)N1CCN(c2ccc(C(F)(F)F)c(F)c2)CC1 (racemic) [compound 325]
29 nM | CC(Oc1ccc(S(C)(=O)=O)cc1C(=O)N1CCN(c2ccc(Br)cn2)CC1)C(F)(F)F (racemic) [compound 435]
47 nM | CC(Oc1ccc(S(C)(=O)=O)cc1C(=O)N1CCN(c2ncc(C(F)(F)F)cc2F)CC1)C(F)(F)F (racemic) [compound 438]
30 nM | C[C@H](Oc1ccc(S(C)(=O)=O)cc1C(=O)N1CCN(c2ncc(C(F)(F)F)cc2F)CC1)C(F)(F)F (racemic) [compound 470]
42 nM | CNS(=O)(=O)c1ccc(OC(C)C(F)(F)F)c(C(=O)N2CCN(c3cc(F)c(C#N)cc3F)CC2)c1 (racemic) [compound 557]
29 nM | CNS(=O)(=O)c1ccc(OC(C)C(F)(F)F)c(C(=O)N2CCN(c3ccc(C#N)c(F)c3F)CC2)c1 (racemic) [compound 558]
26 nM | CC(Oc1ccc(S(C)(=O)=O)cc1C(=O)N1CCN(c2ccc(C(F)(F)F)cc2F)CC1)C(F)(F)F (single isomer, unassigned) [compound 466]
12 nM | CC(C)Oc1ccc(S(C)(=O)=O)cc1C(=O)N1CCN(c2ccc(C(F)(F)F)cc2F)CC1 [Example 5, [4-(2-fluoro-4-trifluoromethyl-phenyl)-piperazin-1-yl]-(2-isopropoxy-5-methanesulfonyl-phenyl)-methanone]
